{"source": "patent US20250011456A1", "about": "“ANTIBODIES AGAINST CD14 AND USES THEREOF” (Villanelle Life Science Inc, priority 2023, published 2025)", "key": {"[1]": {"tested_on": "CD14 positive recurrent bladder cancer patient-derived xenograft (PDX)", "assay": "Anti-CD14 IgG1/IgG4 with or without cisplatin, tumor treatment in PDX mice (tumor length, width, volume, tumor weight; Example 6)", "assay_type": "in vivo", "settings": "for Tumor Length / Tumor Volume / Tumor Width: Cisplatin 4 mg/kg i.v. (C. Ex. 2), PDX mice 1-6", "text": "After removing the primary tumor tissue from the patient, the tissue was temporarily placed in a complete culture medium containing RPMI1640 (Gibco Roswell Park Memorial Institute 1640 Media)+PS (penicillin and streptomycin)+10% FBS (Fetal bovine serum). The tissue was then transported to a sterile operating room within an SPF-grade (Specific Pathogen Free) animal facility. The tumor tissue was cut to an appropriate size (5 millimeters (mm) in diameter). Severely immunodeficient NSG (NOD scid gamma mouse) mice were anesthetized using an isoflurane respirator. The tumor was transplanted subcutaneously into the right rib area through surgery. When the tumor volume reached 1 cm^3, it was passaged following the same procedure, and after expanding for three generations, the tumor became stable for use in formal experiments. During the experiment, passaging and expansion were performed as needed. When the tumor volume reached 100 mm^3, the mice were divided into groups according to the experimental requirements and treated with drugs.\nThe IgG4 tested is the original version of Atibuclimab.\nDrug administration on the PDX mice was performed intravenously."}, "[2]": {"assay": "Mouse weight under the treatment regimens of Example 6 (PDX mice)", "settings": "Cisplatin 4 mg/kg i.v. (C. Ex. 2), PDX mice 1-6", "experimental": "For these experiments, eight (8) treatment groups for PDX mice were set up: control IgG group (C.Ex. 1), single cisplatin group (4 mg/kg; C.Ex. 2), single anti-CD14-IgG1 group (5 mg/kg; Ex. 1), single anti-CD14-IgG4 (5 mg/kg; Ex. 2), combined cisplatin and anti-CD14-IgG1 group (4 mg/kg+1.5 mg/kg; Ex. 3), combined cisplatin and anti-CD14-IgG4 group (4 mg/kg+1.5 mg/kg; Ex. 4), combined cisplatin and anti-CD14-IgG1 group (4 mg/kg+5 mg/kg; Ex. 5), and combined cisplatin and anti-CD14-IgG4 group (4 mg/kg+5 mg/kg; Ex. 6). […] When cisplatin was used in these experiments, the cisplatin was used at a dose of 4 mg/kg. “C.Ex.” refers to comparative examples and “Ex.” refers to examples of embodiments of the present disclosure. The control is a non-specific IgG1 having two identical heavy chains and two identical light chains. The non-specific IgG1 has no binding affinity to the antigen.\nDrug administration on the PDX mice was performed intravenously. Drug administration was performed on days 0, 4, 7, 11, 14, 18, 21, 25, and 28. Measurements of length, width, volume, and weight were performed prior to the drug administration on day 0, 4, 7, 11, 14, 18, 21, 25, and 28. The tumors were present on the skin of the mice. A ruler was used to measure the length and the width. The tumor volume was calculated by volume=½(length×width^2). The weight of the mouse was measured by placing the mouse on a scale and weighing. Tumor weight was measured by removing the tumor from the mouse and weighing on a scale."}}, "note": "Where “and” joins values, the source holds several entries; their conditions need not be identical. Equal values may be shown once."}
{"smiles": "N.N.[Cl][Pt][Cl]", "note": "[Cisplatin, cisplatin, reference compound]", "values": [{"measurement": "Tumor Length", "setting": "[1]; Day 0", "result": "6.73 mm and 6.19 mm and 6.27 mm and 6.28 mm and 7.76 mm and 7.8 mm"}, {"measurement": "Tumor Volume", "setting": "[1]; Day 0", "result": "60.66 mm^3 and 92.72 mm^3 and 86.02 mm^3 and 73.84 mm^3 and 94.74 mm^3 and 109.53 mm^3"}, {"measurement": "Tumor Width", "setting": "[1]; Day 0", "result": "4.15 mm and 5.35 mm and 5.12 mm and 4.74 mm and 4.83 mm and 5.18 mm"}, {"measurement": "Tumor Length", "setting": "[1]; Day 4", "result": "6.66 mm and 6.27 mm and 5.94 mm and 5.93 mm and 6.62 mm and 5.98 mm"}, {"measurement": "Tumor Volume", "setting": "[1]; Day 4", "result": "87.83 mm^3 and 103.64 mm^3 and 106.38 mm^3 and 105.48 mm^3 and 165.90 mm^3 and 96.75 mm^3"}, {"measurement": "Tumor Width", "setting": "[1]; Day 4", "result": "5.02 mm and 5.62 mm and 5.85 mm and 5.83 mm and 6.92 mm and 5.56 mm"}, {"measurement": "Tumor Length", "setting": "[1]; Day 7", "result": "6.33 mm and 6.99 mm and 6.68 mm and 7.3 mm and 7.66 mm and 7.34 mm"}, {"measurement": "Tumor Volume", "setting": "[1]; Day 7", "result": "97.32 mm^3 and 111.46 mm^3 and 139.19 mm^3 and 144.96 mm^3 and 184.82 mm^3 and 147.18 mm^3"}, {"measurement": "Tumor Width", "setting": "[1]; Day 7", "result": "5.42 mm and 5.52 mm and 6.31 mm and 6.16 mm and 6.79 mm and 6.19 mm"}, {"measurement": "Tumor Length", "setting": "[1]; Day 11", "result": "8.7 mm and 6.68 mm and 7.84 mm and 8.41 mm and 7.57 mm and 7.94 mm"}, {"measurement": "Tumor Width", "setting": "[1]; Day 11", "result": "6.55 mm and 6.18 mm and 6.08 mm and 7.57 mm and 7.19 mm and 5.43 mm"}, {"measurement": "Tumor Length", "setting": "[1]; Day 14", "result": "7.16 mm and 8.08 mm and 7.68 mm and 8.19 mm and 9.8 mm and 9.87 mm"}, {"measurement": "Tumor Volume", "setting": "[1]; Day 14", "result": "191.56 mm^3 and 209.57 mm^3 and 206.05 mm^3 and 280.52 mm^3 and 299.36 mm^3 and 256.73 mm^3"}, {"measurement": "Tumor Width", "setting": "[1]; Day 14", "result": "7.15 mm and 7.04 mm and 7.16 mm and 8.09 mm and 7.64 mm and 7.05 mm"}, {"measurement": "Tumor Length", "setting": "[1]; Day 18", "result": "9.5 mm and 10.13 mm and 8.93 mm and 9.14 mm and 8.11 mm and 9.96 mm"}, {"measurement": "Tumor Volume", "setting": "[1]; Day 18", "result": "359.20 mm^3 and 359.95 mm^3 and 306.62 mm^3 and 367.06 mm^3 and 235.57 mm^3 and 353.91 mm^3"}, {"measurement": "Tumor Width", "setting": "[1]; Day 18", "result": "8.5 mm and 8.24 mm and 8.1 mm and 8.76 mm and 7.45 mm"}, {"measurement": "Tumor Length", "setting": "[1]; Day 21", "result": "9.64 mm and 9.79 mm and 9.77 mm and 10.69 mm and 9.27 mm and 9.57 mm"}, {"measurement": "Tumor Volume", "setting": "[1]; Day 21", "result": "461.07 mm^3 and 334.49 mm^3 and 398.65 mm^3 and 549.42 mm^3 and 378.25 mm^3 and 399.39 mm^3"}, {"measurement": "Tumor Width", "setting": "[1]; Day 21", "result": "9.56 mm and 8.08 mm and 8.83 mm and 9.91 mm and 8.93 mm"}, {"measurement": "Tumor Length", "setting": "[1]; Day 25", "result": "10.14 mm and 11.63 mm and 10.89 mm and 10.35 mm and 10.8 mm and 9.29 mm"}, {"measurement": "Tumor Volume", "setting": "[1]; Day 25", "result": "447.20 mm^3 and 648.21 mm^3 and 545.11 mm^3 and 447.56 mm^3 and 545.04 mm^3 and 354.58 mm^3"}, {"measurement": "Tumor Width", "setting": "[1]; Day 25", "result": "9.18 mm and 10.32 mm and 9.78 mm and 9.09 mm and 9.82 mm and 8.54 mm"}, {"measurement": "Tumor Length", "setting": "[1]; Day 28", "result": "10.94 mm and 11.95 mm and 11.36 mm and 9.95 mm and 11.27 mm and 11.26 mm"}, {"measurement": "Tumor Volume", "setting": "[1]; Day 28", "result": "472.03 mm^3 and 644.29 mm^3 and 617.31 mm^3 and 399.59 mm^3 and 624.50 mm^3 and 680.98 mm^3"}, {"measurement": "Tumor Width", "setting": "[1]; Day 28", "result": "9.08 mm and 10.15 mm and 10.19 mm and 8.76 mm and 10.29 mm and 10.75 mm"}, {"measurement": "Tumor weight after 28 days", "setting": "[1]; Cisplatin (4 mg/kg), C. Ex. 2, per mouse 1-6", "result": "0.556 grams and 0.459 grams and 0.538 grams and 0.669 grams and 0.566 grams and 0.419 grams"}, {"measurement": "tumor suppression rate", "setting": "[1]; single cisplatin 4 mg/kg (C.Ex. 2), after 28 days, compared to the control group", "result": "about 50%"}, {"measurement": "Mouse Weight", "setting": "[2]; Day 0", "result": "20.24 g and 20.99 g and 19.91 g and 20.78 g and 20.29 g and 20.61 g"}, {"measurement": "Mouse Weight", "setting": "[2]; Day 4", "result": "20.91 g and 20.32 g and 20.42 g and 20.81 g and 20.93 g and 19.35 g"}, {"measurement": "Mouse Weight", "setting": "[2]; Day 7", "result": "19.77 g and 20.8 g and 21.42 g and 19.96 g and 20.93 g and 20.38 g"}, {"measurement": "Mouse Weight", "setting": "[2]; Day 11", "result": "21.17 g and 21.76 g and 20.58 g and 20.08 g and 21.59 g and 19.94 g"}, {"measurement": "Mouse Weight", "setting": "[2]; Day 14", "result": "21.09 g and 21.3 g and 21.38 g and 21.68 g and 20.56 g and 22.59 g"}, {"measurement": "Mouse Weight", "setting": "[2]; Day 18", "result": "21.17 g and 21.02 g and 21.25 g and 21.23 g and 21.03 g and 21.58 g"}, {"measurement": "Mouse Weight", "setting": "[2]; Day 21", "result": "22.54 g and 22.44 g and 22.47 g and 22.85 g and 22.23 g and 22.65 g"}, {"measurement": "Mouse Weight", "setting": "[2]; Day 25", "result": "25.05 g and 24.06 g and 22.26 g and 23.7 g and 25.49 g and 22.66 g"}, {"measurement": "Mouse Weight", "setting": "[2]; Day 28", "result": "24.11 g and 25.57 g and 24.32 g and 23.69 g and 24.47 g and 25.73 g"}]}
